In PMC4666006 (European journal of cancer (Oxford, England : 1990), 2013):
Each block holds one compound with its values, some of them ahead of it.

Key:
patients with RCC = settings: cited from earlier work
[1] = tested on: patients with advanced renal cell cancer; settings: ongoing randomised phase III trial; cited from earlier work
[2] = tested on: patients with advanced RCC; assay: Treatment-emergent adverse events; format: in vivo; settings: all 27 patients
[3] = tested on: patients with advanced RCC; settings: cited from earlier work
[4] = cited from earlier work
[5] = Pharmacokinetic assessments; format: in vivo, patients; settings: for Tmax / AUC(0-t) / Cmax: human, serum
[6] = tested on: patients with advanced RCC; assay: 3 + 3 dose-escalation: dose-limiting toxicities and recommended phase II dose; format: in vivo
[7] = tested on: patients with advanced RCC; settings: phase III; cited from earlier work

SMILES: CNC(=O)c1cc(Oc2ccc(NC(=O)Nc3ccc(Cl)c(C(F)(F)F)c3)cc2)ccn1 [sorafenib]
Grade 3/4 hypertension, patients (patients with RCC): 4–11%
Incidence of hypertension (patients with RCC): 17–29%
progression-free survival [1]: 9.1 months

SMILES: COc1cc2nccc(Oc3ccc(NC(=O)Nc4cc(C)on4)c(Cl)c3)c2cc1OC [tivozanib]
Patients with ≥1 dose reduction/interruption of the drug [2]: 59%
Hypertension, treatment-related event, patients ([3]; phase II, advanced RCC): 45%
Fatigue, treatment-related event, patients ([3]; tivozanib monotherapy, phase II, advanced RCC): 8%
Grade 3 hypertension, patients ([3]; tivozanib phase II trial): 11%
Grade 4 hypertension, patients ([3]; tivozanib phase II trial): 1%
half-life [4]: ~ 4.5 d
progression-free survival [1]: 11.9 months
Tmax ([5]; oral, […]): 17.3 h
Recommended phase II dose (RP2D), tivozanib ([6]; orally, 3 weeks on/1 week off, in combination with temsirolimus): 1.5 mg/day

SMILES: CO[C@H]1C[C@@H]2CC[C@@H](C)[C@@](O)(O2)C(=O)C(=O)N2CCCC[C@H]2C(=O)O[C@H]([C@H](C)C[C@@H]2CC[C@@H](OC(=O)C(C)(CO)CO)[C@H](OC)C2)CC(=O)[C@H](C)/C=C(\C)[C@@H](O)[C@@H](OC)C(=O)[C@H](C)C[C@H](C)/C=C/C=C/C=C/1C [temsirolimus]
Patients with ≥1 dose reduction/interruption of the drug [2]: 63%
Fatigue, temsirolimus-related TEAE [7]: 51%
AUC(0-t) ([5]; intravenous, 15 mg/week): 3190 ng·h/mL
Cmax ([5]; intravenous, 15 mg/week): 164 ng/mL
Tmax ([5]; intravenous, 15 mg/week): 2.32 h
AUC(0-t) ([5]; intravenous, 25 mg/week): 4240 ng·h/mL
Cmax ([5]; intravenous, 25 mg/week): 200 ng/mL
Tmax ([5]; intravenous, 25 mg/week): 1.81 h
Recommended phase II dose (RP2D), temsirolimus ([6]; intravenously, in combination with tivozanib): 25 mg/week

Ratio of sirolimus AUC0–last /temsirolimus AUC0–last, mean (SD) ([5]; day 22, Temsirolimus 15 mg/week): 1.26 (0.67)
Ratio of sirolimus AUC0–last /temsirolimus AUC0–last, mean (SD) ([5]; day 22, Temsirolimus 25 mg/week): 1.48 (0.66)
AUC(0-t) ([5]; intravenous, 15 mg/week): 3560 ng·h/mL
Cmax ([5]; intravenous, 15 mg/week): 51.3 ng/mL
Tmax ([5]; intravenous, 15 mg/week): 3.18 h
AUC(0-t) ([5]; intravenous, 25 mg/week): 6570 ng·h/mL
Cmax ([5]; intravenous, 25 mg/week): 93.8 ng/mL
Tmax ([5]; intravenous, 25 mg/week): 1.81 h
SMILES: CO[C@H]1C[C@@H]2CC[C@@H](C)[C@@](O)(O2)C(=O)C(=O)N2CCCC[C@H]2C(=O)O[C@H]([C@H](C)C[C@@H]2CC[C@@H](O)[C@H](OC)C2)CC(=O)[C@H](C)/C=C(\C)[C@@H](O)[C@@H](OC)C(=O)[C@H](C)C[C@H](C)/C=C/C=C/C=C/1C [Sirolimus, sirolimus]

SMILES: CNC(=O)c1ccccc1Sc1ccc2c(/C=C/c3ccccn3)n[nH]c2c1 [axitinib]
Grade 3/4 hypertension, patients (patients with RCC): 16%
Incidence of hypertension (patients with RCC): 40%

SMILES: Cc1ccc(Nc2nccc(N(C)c3ccc4c(C)n(C)nc4c3)n2)cc1S(N)(=O)=O [pazopanib]
Grade 3 hypertension, patients (patients with RCC): 4%
Grade 4 hypertension, patients (patients with RCC): 0%
Incidence of hypertension (patients with RCC): 40%

SMILES: CCN(CC)CCNC(=O)c1c(C)[nH]c(/C=C2\C(=O)Nc3ccc(F)cc32)c1C [sunitinib]
Grade 3 hypertension, patients (patients with RCC): 8%
Grade 4 hypertension, patients (patients with RCC): 0%
Incidence of hypertension (patients with RCC): 24%
